From US8603546B2, “Herbal supplement for increased muscle strength and endurance for athletes” (priority 1999, dated 2013)

Key:
[1] = test system: athletes; assay: Endurance group: maximum repetitions in 6 basic exercises by athletes taking galanthamine; format: in vivo, human; settings: vs initial level
Description: (§1) 30 healthy individuals, both male and female, ages 18-28, are separated into 2 groups, 15 persons each, to observe the changes in their strength and endurance after administration of galanthamine and regular physical training. All subjects are athletes who have exercised regularly in the gym for 1 to 3 years. During the 3 week test period, all subjects train about 4 times a week with a special exercise program for the first week as described below, supplemented with the subjects' own preferred training schedule. Strength and endurance are observed through 6 basic exercises involving the major muscle groups as follows:
10 participants in each group take galanthamine, the other 5 take a placebo. The dosage of galanthamine is 7.5 mg daily taken with a meal 1.5-2 hours before the workout on training days and 5 mg daily on non-training days divided into two equal portions taken in the morning and in the afternoon. 2. The Strength Group. • a. The initial level. Before administration of galanthamine the initial strength level of each subject is determined and is defined as the maximum weight a subject is able to lift in all 6 exercises. • b. The training schedule. […]

[2] = test system: athletes; assay: Strength group: maximum weight lifted in 6 basic exercises by athletes taking galanthamine; format: in vivo, human
Description: as §1
10 participants in each group take galanthamine, the other 5 take a placebo. The dosage of galanthamine is 7.5 mg daily taken with a meal 1.5-2 hours before the workout on training days and 5 mg daily on non-training days divided into two equal portions taken in the morning and in the afternoon. 2. The Strength Group. • a. The initial level. Before administration of galanthamine the initial strength level of each subject is determined and is defined as the maximum weight a subject is able to lift in all 6 exercises. • b. The training schedule. The subjects use a split training method, that is they alternate on one day training their chest, back and shoulder muscles (performing exercises #1, 2 and 3, respectively) and the next day train their biceps, triceps and legs (exercises #4, 5 and 6, respectively). The subjects do 5-6 sets in each exercise using a pyramidal principle for increasing their strength, i.e. they start every exercise doing 10-15 repetitions using a middle weight, then increase the weight gradually, being able to do fewer repetitions, until the maximum weight they are able to lift for one repetition with difficulty is reached. 2 sets are then performed using the same or 5-10% less weight. This maximum weight is considered the “record for the day”, and is compared to the initial level. • c. The results. An increase in strength is observed almost immediately after administration of galanthamine. […]

COc1ccc2c3c1O[C@H]1C[C@@H](O)C=C[C@@]31CCN(C)C2 [galanthamine]
average endurance increase ([1]; after the first week, 7.5 mg daily on training days, 5 mg daily on non-training days): 11%
average endurance increase ([1]; end of the trial, after 3 weeks of treatment): 24%
average increase in strength ([2]; after 1 week, 7.5 mg daily on training days, 5 mg daily on non-training days, vs initial level): 4-7%
total increase in strength ([2]; by the third week, 7.5 mg daily on training days, 5 mg daily on non-training days, vs initial level): 10-13%
increase in strength reported by athletes ([2]; continued galanthamine for up to 3 months, during the entire period): over 20%
